Data from patent publication US20240279684A1, “CYTOSOLIC DELIVERY OF GENOME EDITING TOOLS” (SAPREME TECHNOLOGIES B.V., priority 2021, published 2024).
Entries after “also recorded” stand apart in the source; their conditions may differ.

Assays:
[1] = test system: Neuro-2A cells; experiment: Transfection efficiency of PD-nanoplexes with/without saponin, flow cytometry (GFP); assay type: cell-based, murine
Protocol: After biophysical characterisation had established that nanoplexes of the large plasmid DNA and the poly-lysine peptide were formed, cell experiments were performed: transfections. […] Without wishing to be bound by any theory, the latter effect is most likely due to insufficient complexing of DNA. […] JIMT-1-cells (DSMZ no.: ACC 589) and Neuro-2A- cells (DSMZ no.: ACC 148) were transfected with nanoplexes containing relatively large Cas9-GFP-plasmid, with and without GE1741-Co-application or SO1861-Co-application at a non-toxic concentration, when the cell which is to be transfected is considered. The transfection efficiency of all transfection conditions was measured after 48 h incubation time using flow cytometry by comparison to the negative control in terms of fluorescence intensity (for example, cells contacted with the nanoparticles in the absence of saponin). The efficiency of GE1741-based transfections and SO1861-based transfections was also compared with efficiency of Lipofectamine3000™-based transfection of the nanoparticles. Transfections were performed according to protocols commonly known and applied in the field (Clochard et al., 2020; Sama et al., 2018a; Sama et al., 2017; Sama et al., 2018b). […] Transfection efficiency of GE1741-mediated PD-transfection and SO1861-mediated PD-transfections on Neuro-2A cells and JIMT-1 cells was assessed. Cells were transfected with Cas9-GFP-DNA containing PD-nanoplexes, with and without GE1741 or SO1861 (final concentration of the saponin was 2 μg/ml). In Neuro-2A cells and JIMT-1 cells transection efficiency varied between 30% and 40%. Lipofectamin3000 served as reference. n≥3; a significant difference compared to the GE1741-free transfections or SO1861-free transfections was apparent, U-test, p≤0.05.
FIG. 4A, B. Transfection efficiency of saponin-mediated PD (Cas9-GFP)-transfections on Neuro-2A cells (FIG. 4A) and on JIMT-1-cells (FIG. 4B). Neuro-2A cells (A) and JIMT-1 cells (B) were transfected with GFP-DNA (i.e. a plasmid comprising the GFP DNA) bearing PD-nanoplexes or with Cas9-GFP-DNA bearing PD-nanoplexes, with and without the highest non-toxic saponin Co-administration (GE1741 Co-administration at 2 μg/ml or SO1861 Co-administration at 2 μg/ml). While GFP-DNA-transfections reached high efficiencies of around 70%, approximately 40% of all cells expressed GFP after Cas9-GFP-transfection. […] N≥3; *: significant difference compared to the saponin-free transfection (only nuclease), U-test.
JIMT-1-cells (human breast carcinoma) and Neuro-2A-cells (murine neuroblastoma) were transfected with nanoplexes, containing Cas9-GFP-plasmid, with and without saponin GE1741-co-application or saponin SO1861-co-application (that is to say, the saponin is added to the cell culture together with the addition of the nanoparticles comprising the nucleic acid that is to be transfected in the presence of the saponin), in a non-toxic concentration when the saponins are considered. The mass ratios for the peptide and the nucleic acid (plasmid DNA) in the nanoparticles were selected considering the dynamic light scattering (DLS) measurements and considering the aforementioned earlier assessed toxicity and earlier performed efficiency studies. The transfection efficiency of all transfection conditions was measured after 48 h incubation time via flow cytometry by comparison to the negative control in terms of fluorescence intensity (FIG. 4). […]

[2] = test system: Neuro-2A-cells; experiment: Confluence measurements during PD-transfections (Cytosmart live-cell imager); assay type: cell-based, murine; details: Cas9-GFP- and GFP-DNA-transfections ± saponin, up to 95 h, vs untreated negative control
Protocol: FIG. 5A-F. Confluence measurements of Neuro-2A-cells during PD (Cas9-GFP)-transfections ±saponin-administration. A visual monitoring of confluence was conducted during the Cas9-GFP-transfections (FIGS. 5A, E, F) and GFP-DNA-transfections (FIGS. 5A, C, D) of Neuro-2A-cells. The display of confluence during the incubation time was provided by algorithms of the Cytosmart. […] Saponin GE1741 was absent (FIGS. 5A, C, E) or present (FIGS. 5A, D, F) during the confluency assessment over time. FIG. 5B-F show the Neuro-2A cell-confluency after an incubation time of 95 h.
In the course of the transfection process of Neuro-2A-cells (seeding, transfection, incubation), the cells were fully imaged and analyzed for confluence by a live-cell imager (Cytosmart Omni). Via cloud-based algorithms, which processed the visual images, the Cytosmart provided a valuable measure of viability in terms of confluence.

[3] = test system: cells with which the nanoplexes are contacted; experiment: Toxicity of saponin towards cells during transfection; assay type: cell-based
Text: It is part of the invention that the method or the use of the invention is characterized in that the nanoparticle comprises the nanoparticle-forming compound, such as a peptide, such as poly-lysine, and the nucleic acid in a mass ratio in a range of 3:1 to 15:1, preferably in a range of 3:1 to 9:1. Typically, the nanoparticle-forming compound is a poly-lysine peptide such as K16 peptide. Preferred is the method wherein the nucleic acid is a plasmid DNA, at least encoding for a Cas, preferably Cas9 (SEQ ID NO: 1), and optionally also encoding for the gRNA, and wherein the nanoparticles comprise in addition to the plasmid DNA at least one poly-lysine peptide, preferably poly-lysine K16 peptide (poly-lysine peptide consisting of sixteen lysine residues). Alternatively, the poly-lysine peptide is a peptide consisting of 8-25 lysine residues, preferably 10-20, more preferably 12-18. High in vitro transfection efficiency is obtained with the method of the invention when nanoparticles encompassing plasmid DNA, K16 peptide are prepared and applied, and are contacted with cells in the presence of a saponin selected from GE1741 and SO1861, and preferably the saponin is GE1741. Typically, the saponin concentration during transfection of the plasmid DNA into selected target cells in vitro is 1 μg/mL-5 μg/mL, preferably 2-4 μg/mL. […] Cells are typically contacted with a composition comprising the nanoplexes and a separate composition comprising the saponin, preferably GE1741. Thus, typically, the nanoparticles comprise the poly-lysine peptide and the nucleic acid, for example at least a plasmid DNA encoding for a Cas, preferably Cas9 (SEQ ID NO: 1), or a Cas with at least 90% sequence identity with this Cas9, preferably 90-99.5% sequence identity, such as 92%, 93%, 94%, 95% or 95-99%.

SMILES: CC(=O)OC1C(C)OC(OC2C(C)OC(OC(=O)C34CCC(C)(C)CC3C3=CCC5C6(C)CCC(OC7OC(C(=O)O)C(O)C(OC8OCC(O)C(O)C8O)C7OC7OC(CO)C(O)C(O)C7O)C(C)(C=O)C6CCC5(C)C3(C)CC4O)C(OC3OC(C)C(OC4OCC(O)C(OC5OCC(O)C(O)C5O)C4O)C(O)C3O)C2O)C(O)C1OC(C)=O (centres unmarked) [GE1741]
- transfection efficiency (cells expressing GFP) ([1]; GFP-DNA PD-nanoplexes, saponin 2 μg/ml, Neuro-2A): around 70%
- transfection modulating properties compared to SO1861 ([1]; large plasmid PD-nanoplexes, Neuro-2A and JIMT-1): slightly better transfection modulating properties; also recorded: even more improved transfection efficiency
- transfection efficiency compared with Lipofectamine3000 ([1]; nanoplexes of relatively large DNA plasmid and poly-lysine, saponin present): higher than obtainable with current gold standard Lipofectamine3000™
- toxic effects by confluence [2]: No distinct toxic effects
- highest non-toxic saponin Co-administration [3]: 2 µg/mL
